Data as given in patent publication US20080221103A1, “New heterocyclic compounds” (ORCHID RESEARCH LABORATORIES LTD., priority 2007, published 2008).

Experiments:
[1] = system: TNF-α; assay: In vitro measurement of TNF-α production in LPS-stimulated human PBMC (ELISA); type: cell-based; details: LPS 1 μg/ml, 18 h; for inhibition at 1 µM: read-out: TNF-α Inhibition (%) at Conc. (1 μM); for inhibition at 10 µM: read-out: TNF-α Inhibition (%) at Conc. (10 μM)
Method: This assay determines the effect of test compounds on the production of TNF-α in human Peripheral Blood Mononuclear Cells (PBMC). Compounds were tested for their ability to inhibit the activity of TNF-α in human PBMC. PBMC were isolated from blood (of healthy volunteers) using BD Vacutainer CPT™ (Cell preparation tube, BD Bio Science) and suspended in RPMI medium (Physiol. Res. 52: 593-598, 2003). The test compounds were pre-incubated with PBMC (0.5 million/incubation well) for 15 min. at 37° C. and then stimulated with Lipopolysaccharide (Escherichia coli: B4; 1 μg/ml) for 18 h at 37° C. in 5% CO2. The levels of TNF-α in the cell culture medium were estimated using enzyme-linked immunosorbent assay performed in a 96 well format as per the procedure of the manufacturer (Cayman Chemical, Ann Arbor, USA).

[2] = system: TNF-α; assay: LPS induced sepsis for measurement of TNF-α inhibition in mice; type: in vivo; details: Mus musculus, 1.5 h; oral dosing; serum TNF-α 90 min after LPS i.p.
Method: The LPS induced sepsis model in mice was performed as described by Les sekut et al (J Lab Clin Med, 1994, 124, 813-820). Female Swiss albino mice were selected and the body weights were equivalent within each group. The mice were fasted for 20 h with free access to water. The mice were dosed orally with the test compound suspended in vehicle containing 0.5% Tween 80 in 0.25% Carboxy-methylcellulose sodium salt. The control mice were administered the vehicle alone. After 30 minutes of oral dosing, mice were injected with 500 μg of Lipopolysaccharide (Escherichia coli, LPS: B4 from Siga) in phosphate buffer saline solution into the intraperitoneal cavity of the mice. After 90 min of LPS administration mice were bled via retro-orbital sinus puncture. Blood samples were stored overnight at 4° C. Serum samples were collected by centrifuging the samples at 4000 rpm for 15 minutes at 4° C. Immediately the serum samples were analysed for TNF-α levels using commercially available mouse TNF-α ELISA kit (Amersham Biosciences) and assay was performed by the manufacturer instruction.

[3] = system: DSS Induced colitis; assay: IBD-DSS model (DSS induced colitis test); type: in vivo; details: dosed Day 1 to 6, BALB/c mice, DSS 2%
Method: DSS Induced colitis test was performed as described by Axelsson et al., 1998. Male BALB/c mice were selected in the age of 7-8 weeks for the study. Colitis in mice was induced by providing DSS (2%) in the drinking water from day 1 to 6. Mice were dosed from Day 1 to 6 with test compound suspended in vehicle containing 0.25% carboxymethylcellulose and 0.5% Tween 80. The control animals received vehicle alone. Body weight and disease activity index was recorded daily during the experiment. After 6 days of treatment, animals were sacrificed; colon weight and colon length was recorded.

[4] = system: PDE4; assay: PDE4 activity; type: biochemical; details: source human U937 cells
Method: PDE4 inhibition was measured by following a literature assay procedure (Cortizo J et al., J. Pharmacol., 1993, 108, 562-568). The assay method involves the following conditions.
Pre-Incubation Time/Temperature: 15 min at 25° C.
Incubation Time/Temperature. 20 min at 25° C.
Incubation buffer: 50 mM Tris-HCl, pH 7.5, 5 mM MgCl2 Quantitation method: Quantitation of [^3H]

[5] = molecular target: T1, 5-LOX (Homo sapiens, UniProt P09917); assay: 5-LOX activity; type: biochemical; details: source human PBML cells, LTB4 EIA
T1 construct: Source: Human PBML cells Substrate: Arachidonic acid; endogenous in cells; host or cells: Human PBML cells (peripheral blood mononuclear leukocytes)
T1 sequence (P09917 1-674): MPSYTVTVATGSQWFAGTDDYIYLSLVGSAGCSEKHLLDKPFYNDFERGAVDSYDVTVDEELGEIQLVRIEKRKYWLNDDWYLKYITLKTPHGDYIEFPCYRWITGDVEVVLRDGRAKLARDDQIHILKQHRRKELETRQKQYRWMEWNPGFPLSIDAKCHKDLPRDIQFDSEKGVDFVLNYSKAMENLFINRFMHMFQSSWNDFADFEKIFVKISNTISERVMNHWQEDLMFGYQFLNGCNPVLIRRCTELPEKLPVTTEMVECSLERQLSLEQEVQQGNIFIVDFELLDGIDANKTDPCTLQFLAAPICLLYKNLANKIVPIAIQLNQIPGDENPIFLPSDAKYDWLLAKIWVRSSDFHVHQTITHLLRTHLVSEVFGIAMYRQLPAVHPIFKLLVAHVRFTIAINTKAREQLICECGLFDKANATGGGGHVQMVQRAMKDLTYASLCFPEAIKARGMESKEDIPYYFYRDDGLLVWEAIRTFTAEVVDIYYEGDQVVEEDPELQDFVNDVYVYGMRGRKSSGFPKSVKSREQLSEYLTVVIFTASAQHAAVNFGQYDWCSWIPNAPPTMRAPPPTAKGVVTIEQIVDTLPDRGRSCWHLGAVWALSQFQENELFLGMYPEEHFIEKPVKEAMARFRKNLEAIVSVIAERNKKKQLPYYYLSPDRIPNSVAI
Method: The assay method involves the following conditions. Source: Human PBML cells Substrate: Arachidonic acid
Pre-incubation Time/Temp.: 15 min at 37° C.
Incubation Time/Temp.: 15 min at 37° C.
Incubation buffer: HBSS (Hank's balanced salt solution) Quantitation method: EIA quantitation of LTB4 Significance criteria: >50% of maximum stimulation or inhibition The results are tabulated as shown in the table V.

[6] = molecular target: T2, Thromboxane synthase (Homo sapiens, UniProt P24557); assay: Thromboxane synthase activity; type: biochemical; details: source human platelets, TxB2 EIA
T2 construct: Source: Human Platelets; from tissue; host or cells: Human platelets
T2 sequence (P24557 1-533): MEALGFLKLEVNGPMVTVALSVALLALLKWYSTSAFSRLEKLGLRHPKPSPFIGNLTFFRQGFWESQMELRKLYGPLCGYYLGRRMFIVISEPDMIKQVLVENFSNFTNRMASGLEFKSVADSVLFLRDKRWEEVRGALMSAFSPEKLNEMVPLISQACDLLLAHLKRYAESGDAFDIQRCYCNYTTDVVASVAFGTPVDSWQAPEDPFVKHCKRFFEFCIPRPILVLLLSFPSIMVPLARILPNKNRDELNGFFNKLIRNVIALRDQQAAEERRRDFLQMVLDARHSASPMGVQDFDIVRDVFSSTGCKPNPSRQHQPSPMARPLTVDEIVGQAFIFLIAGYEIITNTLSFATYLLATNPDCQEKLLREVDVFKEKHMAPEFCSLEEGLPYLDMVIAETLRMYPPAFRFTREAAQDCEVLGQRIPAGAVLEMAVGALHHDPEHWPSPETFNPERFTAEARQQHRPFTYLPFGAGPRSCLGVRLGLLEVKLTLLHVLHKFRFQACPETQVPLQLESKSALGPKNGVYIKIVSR
Method: The assay method involves the following conditions.
Pre-incubation Time/Temp.: 15 min at 25° C.
Incubation Time/Temp.: 3 min at 25° C.
Incubation buffer: 10 mM Tris-HCl, pH 7.4 Quantitation method: EIA quantitation of TxB2 Significance criteria: >50% of maximum stimulation or inhibition The results are tabulated as shown in the table VI.

[7] = system: NCIH460 cells; assay: Anti-cancer screen (MTT), NCIH460; type: cell-based; details: Homo sapiens, NCI-H460, 48 h, concentrations tested 0.01-100 μM
Method: (§1) Experimental drugs are screened for anti-cancer activity in three cell lines for their GI50, TGI and LC50 values (using 5 concentrations for each compound). The cell lines are maintained in DMEM containing 10% fetal bovine serum. 96 well microtiter plates are inoculated with cells in 100 μL for 24 hours at 37° C., 5% CO2, 95% air and 100% relative humidity. 5000 HCT116 cells/well, 5000 NCIH460 cells/well, 10000 U251 cells/well and 5000 MDAMB231 cells/well are plated. A separate plate with these cell lines is also inoculated to determine cell viability before the addition of the compounds (T0).
(§2) Following 24-h incubation, experimental drugs are added to the 96 well plates. […]
(§3) Cells are incubated with compounds for 48 h followed by the addition of 10 μL 3-(4,5-Dimethyl-2-thiazolyl)-2,5-diphenyl-2H-tetrazolium (MTT) solution per well and a subsequent incubation at 37° C., 5% CO2, 95% air and 100% relative humidity, protected from light. […] Plates are agitated to ensure solution of the formazan crystals in DMSO and absorbance read at 570 nm.
(§4) Percent growth is calculated for each compound's concentration relative to the control and zero measurement wells (T0; viability right before compound addition). […]

[8] = system: HCT116 cells; assay: Anti-cancer screen (MTT), HCT116; type: cell-based; details: Homo sapiens, HCT-116, 48 h, concentrations tested 0.01-100 μM
Method: as §1, §2, §3, §4

[9] = system: U251 cells; assay: Anti-cancer screen (MTT), U251; type: cell-based; details: Homo sapiens, U-251, 48 h, concentrations tested 0.01-100 μM
Method: as §1, §2, §3, §4

[10] = system: NCIH460, HCT116, U251; assay: Anti-cancer screen (MTT), mean over three cell lines; type: cell-based; details: mean of NCIH460, HCT116, U251
Method: as §1, §2, §3, §4

CSc1nc(-c2ccccc2)nc(NN2C(=O)C=C(C)C2=O)c1C#N [Example 1, 4-(3-Methyl-2,5-dioxo-2,5-dihydro-1H-pyrrol-1-ylamino)-6-(methylthio)-2-phenylpyrimidine-5-carbonitrile]
inhibition at 1 µM [1]: 57.3% | inhibition at 10 µM [1]: 92.7% | ED50 [2]: 3.1 mg/kg | IBD-DSS Model % Inhibition of DAI at 50 mg/kg [3]: 47% | PDE4 inhibition at 10 μM (%) [4]: 61% | inhibition at 10 µM [5]: 94% | inhibition at 10 µM [6]: 96%

COc1ccc(-c2nc(NN3C(=O)C=C(C)C3=O)c(C#N)c(SC)n2)cc1 [Example 2, 4-(Thiomethyl)-2-(4-methoxyphenyl)-6-(3-methyl-2,5-dioxo-2,5-dihydro-1H-pyrrol-1-ylamino)pyrimidine-5-carbonitrile]
inhibition at 1 µM [1]: 50.9% | inhibition at 10 µM [1]: 95.4%

COc1ccc(-c2nc(NN3C(=O)C=C(C)C3=O)c(C#N)c(SC)n2)cc1S(N)(=O)=O [Example 6, 5-(5-Cyano-4-(3-methyl-2,5-dioxo-2,5-dihydro-1H-pyrrol-1-ylamino)-6-(methylthio)pyrimidin-2-yl)-2-methoxybenzenesulfonamide]
inhibition at 10 µM [1]: 88% | GI50 [7]: 10.1 µM | GI50 [8]: 4.9 µM | GI50 [9]: 920 nM | GI50 [10]: 5.3 µM

CSc1nc(-c2cccc(S(N)(=O)=O)c2)nc(NN2C(=O)C=C(C)C2=O)c1C#N [Example 10, 3-(5-Cyano-4-(3-methyl-2,5-dioxo-2,5-dihydro-1H-pyrrol-1-ylamino)-6-(methylthio)pyrimidin-2-yl)benzenesulfonamide]
inhibition at 1 µM [1]: 20% | inhibition at 10 µM [1]: 9.7%

CSc1nc(-c2cccs2)nc(NN)c1C#N [Example 13, 4-Hydrazinyl-6-(methylthio)-2-(thiophen-2-yl)pyrimidine-5-carbonitrile]
inhibition at 1 µM [1]: 13% | inhibition at 10 µM [1]: 71%

COc1ccc(-c2nc(SC)c(C#N)c(N3CCN(c4ccccn4)CC3)n2)cc1 [Example 39, 2-(4-Methoxyphenyl)-4-(methylthio)-6-(4-(pyridin-2-yl)piperazin-1-yl)pyrimidine-5-carbonitrile]
inhibition at 1 µM [1]: 19.2% | inhibition at 10 µM [1]: 34%
